Tests used:
mice = assay: Tail-flick and hot-plate tests of morphine antinociception; format: in vivo, mouse
Procedure: Tail-flick test. All animals were habituated to testing environment for at least 2 days before baseline testing. Mice were gently held by a hand with a terry glove and with tails exposed. The distal 3 cm of the tail was immersed into the 50° C. hot water. The tail-flick latency was the time required for a mouse to flick or remove its tail out of the water. A maximum cut-off value of 15 seconds was set to avoid thermal injury. Tail-flick latency was determined both before and after drug injection. Data are expressed as the maximum possible effect (MPE) calculated as MPE (%)=100×[(postdrug response baseline response)/(cutoff response−baseline response)]. The MPE (%) data from each animal were converted to area under the curve (AUC).
Hot-plate test. All animals were habituated to testing environment for at least 2 days before baseline testing. […] A maximum cut-off value of 40 seconds was set to avoid tissue injury. Data are expressed as the maximum possible effect (MPE) calculated as MPE (%)=100×[(postdrug response−baseline response)/(cutoff response−baseline response)]. The MPE (%) data from each animal were converted to area under the curve (AUC).

[1] = test system: afferent fibers in sciatic nerve of melanoma-bearing mice; assay: Spontaneous discharge recordings in mouse sciatic nerve in vivo; conditions: i.v. Nivolumab 10 mg/kg, MCI-4w, 3 h after injection
Text: Spontaneous discharge recordings in mouse sciatic nerve in vivo. Adult male mice (25-32 g) were anaesthetized with urethane (1.5 g/kg, i.p.) and monitored for loss of hind paw pinch reflex with additional injections of urethane (0.2 g/kg). The animals were artificially ventilated with oxygen on a respirator. The left thigh was shaved and an incision made parallel to the femur. The muscle was parted by blunt forceps dissection to expose the sciatic nerve proximal to the trifurcation. A cuff electrode (Microprobes) was placed loosely around the full circumference of the sciatic nerve. Skin flaps were raised to enclose a pool of mineral oil that covered the exposed regions of nerve. The spontaneous discharges in the sciatic nerve were recorded with a microelectrode AC amplifier (1800, A-M systems), filtered (low cut-off 100 Hz and hi cut-off 20 kHz) and digitized at 20 kHz (Digidata 1440A, Molecular Devices). Data were stored with a personal computer using pCLAMP 10 software and analyzed with Offline Sorter software (Plexon, Dallas, Tex.) and Origin pro 8.0 (Origin Lab). The spikes of sciatic nerve were characterized as previously reported (Xu, Z Z, et al. 2015).

[2] = test system: mice with LLC bone cancer; assay: Bone cancer pain model, Lewis lung cancer (LLC) cells in tibia; format: in vivo, mouse; conditions: Nivolumab 10 mg/kg IV on day 0, 3, 7, 10, 14
Text: (B) Cancer pain, as measured by mechanical pain sensitivity (paw withdrawal threshold) in von Frey test. (C) Mechanical allodynia (paw withdrawal frequency to a subthreshold filament, 0.4 g) in von Frey test. (D) Cold allodynia (lifting and licking time) in acetone test. (E) Heat hyperalgesia (paw withdrawal latency) in Hargreaves test. (B-E) n=9-11 mice in each group; Two-way ANOVA with Bonferroni's hoc-test; *P<0.05, compared with baseline; #P<0.05, compared with Saline group.

[3] = test system: small-diameter neurons of whole-mount DRG; assay: Whole-cell patch clamp recordings in whole mount DRGs ex vivo; format: cell-based, mouse; conditions: WT whole mount DRG; sPD-1 30 ng/ml, Nivolumab 300 ng/ml
Procedure: Whole-cell patch clamp recordings in whole mount DRGs of mice ex vivo. L4-L5 DRGs were carefully removed 4 days after sham surgery or CCI surgery and placed in cold oxygenated ACSF. The connective tissue was gently removed under a microscope and the ganglia were digested with a mixture of 0.4 mg/mL trypsin (Sigma) and 1.0 mg/ml type-A collagenase (Sigma) for 30 min at 37° C. The intact ganglia were then incubated in ACSF oxygenated with 95% O2 and 5% CO2 at 28° C. for at least 1 h before transferring them to the recording chamber. DRG neurons were visualized with a 40× water-immersion objective using a BX51WI microscope (Olympus). Whole-cell current and voltage recordings were acquired with an Axon700B amplifier. Patch pipettes (4-7 MO) were pulled from borosilicate glass capillaries on P-97 puller. The recording chamber (300 μl) was continuously superfused (3-4 ml/min). Series resistance was compensated for (>80%), and leak subtraction was performed. The pipette solution contained (in mM): 140 KCl, 2 MgCl2, 10 Hepes, 2 Mg-ATP, pH 7.4. Osmolarity was adjusted to 290-300 mOsm. Data was acquired with a Digidata 1322A acquisition system (molecular devices) using pCLAMP 9.0 software. Signals were low-pass filtered at 5 kHz, sampled at 10 kHz and analyzed offline.

naive mice = assay: Basal pain in naive mice (von Frey test, spontaneous pain); format: in vivo, mouse; conditions: RMP1-14 5 μg, Nivolumab 10 μg
melanoma-bearing mice = assay: Mouse melanoma model: spontaneous pain, von Frey test, CPP; format: in vivo; conditions: MCI-4w
[4] = test system: tibia bone of mice with LLC bone cancer; assay: X-ray bone destruction score in LLC bone cancer model; format: in vivo, mouse; conditions: Nivolumab 10 mg/kg IV; scores 8, 11 and 15 days after tumor inoculation
Procedure: FIG. 27. Intravenous injections of Nivolumab protect against bone destruction after tumor inoculation. […] (B) X-ray images showing tibia bones 11 days after tumor inoculation. Arrows show bone destruction in saline-treated animals. (C) Bone destruction scores 8, 11, and 15 days after tumor inoculation. The scores were assessed as follows: Score 0, normal bone with no signs of destruction; Scorel, small radiolucent lesions indicative of bone destruction (one to three lesions); Score 2, increased number of lesions (three to six lesions) and loss of medullary bone; Score 3, loss of medullary bone and erosion of cortical bone; Score 4, full-thickness unicortical bone loss; Score 5, full-thickness bicortical bone loss and displaced skeletal fracture. n=9-11 in each group, male, 8-10 weeks; Two-way ANOVA with Bonferroni's hoc-test; *P<0.05, compared with baseline; #P<0.05, compared with Saline group; Scores n were shown by the arrows in B.
Since cancers often become painful after metastasis to bone tissue, we examined the role of PD-1 in a bone cancer pain model following inoculation of Lewis lung cancer (LLC) cells into tibia bone cavity. […]

## Nivolumab: FDA-approved fully humanized IgG4 monoclonal anti-PD-1 antibody, Bristol-Myers Squibb
mice; Nivolumab 10 mg/kg i.v. 30 min before morphine 10 mg/kg s.c.
  analgesic effect of morphine after Nivolumab: reduced analgesic effect
mice; Nivolumab 10 mg/kg i.v. 30 min before s.c. saline
  pain sensitivity, given with saline: greater sensitivity to pain
[1]
  spontaneous discharges in nerve fibers: significantly increased spontaneous discharges
[2]
  cancer pain days after each treatment: sustained beneficial effects on cancer pain relief
[3]
  firing rate of action potentials: increased the firing rate
Naive mice; antibody i.pl. 30 min prior to PD-L1 (5 μg, i.pl.)
  effect on PD-L1's analgesic effects: blocked
Naive mice; i.pl., sPD-1 5 μg
  duration of mechanical allodynia in naive mice: 5 h
  mechanical allodynia in naive mice: marked mechanical allodynia
melanoma-bearing mice; sPD-1 5 μg i.pl., siRNA 2 μg peri-sciatic, Nivolumab 3-10 mg/kg i.v., RMP1-14 10 mg/kg i.v.
  mechanical allodynia in melanoma-bearing mice: rapid, persistent, and dose-dependent mechanical allodynia
melanoma-bearing mice; sPD-1 5 μg i.pl., siRNA 2 μg peri-sciatic, Nivolumab 3-10 mg/kg i.v., RMP1-14 10 mg/kg i.v., SSG 5 μg i.pl.
  spontaneous pain (licking/flinching) in melanoma-bearing mice: marked spontaneous pain
melanoma-bearing mice; intrathecal or intraplantar route
  mechanical allodynia in melanoma-bearing mice after local injection: evoked mechanical allodynia
[4]
  tibia bone destruction during cancer progression (X-ray): protected

Reference: US11007250B2, “Methods and kits for treating pain” (Duke University, priority 2017, dated 2021)
